# In patent US12291494B2, “Methods of treating fibrosis” (Nogra Pharma Limited, priority 2012, dated 2025):
# Legend:
# Male C57bl6 mice = experiment: CCl4-induced liver fibrosis: histology (Metavir score); assay type: in vivo
# Description: Liver fibrosis was induced in Male C57bl6 mice (Charles River, l'Arbresle, France) by injection of carbon tetrachloride (CCl4). The C57bl6 mice weighed 22-25 g and were maintained in laboratory conditions for 1 week before experiment. Animals were housed 5 per cage with food and water available ad libitum.
# The effectiveness of compound 34 (specific ligand of PPARg) as compared to JWH-133 (anti-fibrogenic agent) was evaluated. Compound 34 was administered orally in combination with CCl4 injections for ca. 5 weeks. Compound 34 was dosed daily at 200 uL of a 30 mM solution. JWH-133 was administered daily via intraperitoneal injections at 3 mg/kg (dose volume=100 uL). The model of liver fibrosis is induced by chronic exposure to increased dosages of CCl4 for 5 weeks. The first week, mice received an intraperitoneal injection of CCl4, resuspended in olive oil, at the dosage of 80 μl/kg of mice body weight twice a week. At week 2, 3 injections of CCl4 at the dosage of 160 μl/kg were performed every two days. At week 3, 3 injections of CCl4 at the dosage of 240 μl/kg were performed every two days. At week 4, 3 injections of CCl4 at the dosage of 320 μl/kg were performed every two days. Mice were euthanized, at week 5, 3 days after the last CCl4 administration.
# The formalin-fixed liver tissue was processed and 5 μm thick paraffin sections were stained with hematoxylin and eosin (H&E) and Picrosirius red staining (specific coloration for collagen in tissue sections) to evaluate the degree of fibrosis in the liver. Each section was analyzed blindly by 3 different experimenters for the quantification of the degree of fibrosis for each lobe of the liver (5) using the Metavir score (see FIG. 2A for Metavir Score chart). The photographs seen in FIG. 2B were obtained with a 20× objective.
# Collagen-1 = experiment: Liver gene expression by quantitative Real Time PCR: collagen-1; assay type: in vivo, mice; conditions: liver mRNA, normalized to β-actin, CCl4 group 138.12 ± 34.68
# Description: The effect of administration of compound 34 (GED) and the specific CB2 agonist (JWH-133) was evaluated on the level of gene expression of cytokines (IL-1β, TNF-α) and genes involved in the mechanism of fibrosis by quantitative Real Time PCR.
# Total RNA was isolated from livers using Rneasy kit (Macherey Nagel, Hoerdt, France) according to the manufacturer's instructions. RNA quantification was performed using spectrophotometry. After treatment at 37° C. for 30 min with 20-50 units of RNase-free DNase I (Roche Diagnostics Corporation, Indianapolis, IN, USA), oligo-dT primers (Roche Diagnostics Corporation, Indianapolis, USA) were used to synthesize single-stranded cDNA. mRNAs were quantified using SYBR green Master Mix (Applera, Courtaboeuf, France) with murine specific oligonucleotides (see Table 2) in a GeneAmp Abiprism 7000 (Applera, Courtaboeuf, France). In each assay, calibrated and no-template controls were included. Each sample was run in triplicate. SYBR green dye intensity was analyzed using the Abiprism 7000 SDS software (Applera, Courtaboeuf, France). All results were normalized to the unaffected housekeeping gene β-actin.
# α-SMA = experiment: DSS intestinal fibrosis study: Western blot of colon, α-SMA; assay type: in vivo, mice; conditions: whole colon, OD normalized with GAPDH, expressed as percentage of control groups; DSS 125.4 ± 19.45
# Description: (§1) For the Western blot analysis, 0.5 cm of frozen colonic samples were homogenized in RIPA Buffer containing 50 mM Tris HCl pH 7.6, 150 mM NaCl, 1.5 mM MgCl2, 5 mM EDTA, 1% Triton-X and 10% Glycerol, supplemented with 100 mM Sodium Fluoride (NaF), 2 mM Sodium Orthovanadate (Na3VO4), 10 mM Sodium Pyrophosphate (NaPPi), 1 mM phenylmethanesulphone (PMSF) and a classical protease-inhibitor cocktail containing 10 μg/mL Leupeptin and Aprotinin.
# (§2) For each sample, 30 μg of protein was separated by PAGE and electroblotted. Nitrocellulose membranes (100% pure) were incubated (according with a specific protocol for each antibody) with primary antibodies directed against CTGF, Collagen-I and GAPDH (purchased from Abcam, Cambridge, UK; 1:1000 for 2 h at RT), diluted in 5% non-fat milk in 0.1% TBS-t. […] Optical density of target bands was determined using a computer-assisted densitometer and the ImageJ public domain software (W. S., Rasband, ImageJ, U. S. National Institutes of Health, Bethesda, MD; http://rsb.info.nih.gov/ij/, 1997-2011). Tissue levels were expressed as units of Optical Density (OD) per quantity of total proteins, normalized with internal control GAPDH and the results were expressed as percentage of control groups.
# Collagen I = experiment: DSS intestinal fibrosis study: Western blot of colon, Collagen I; assay type: in vivo, mice; conditions: whole colon, OD normalized with GAPDH, expressed as percentage of control groups; DSS 284.4 ± 63.86; listed as GED
# Description: as §1, §2
smiles,measurement,setting,value
"COC(Cc1ccc(N)cc1)C(=O)O (racemic) [Compound 34, (±)-2-methoxy-3-(4′-aminophenyl) propionic acid]",decrease of the fibrotic score (adapted Metavir score) compared to untreated animals,Male C57bl6 mice; FIG. 3B,12.5%
same,mean Metavir score (FIG. 3A),"Male C57bl6 mice; compound 34 30 mM 200 uL oral daily, JWH-133 3 mg/kg i.p. daily, CCl4 vehicle group 2.5±0.5",2.1±0.2
same,degree of fibrosis (Metavir),Male C57bl6 mice; result in words,decrease in the degree of fibrosis from severe to moderate fibrosis
same,Collagen-1,Collagen-1,"75.15 ± 5.23, p = 0.03"
same,Collagen-1,Collagen-1; listed as compound 34,42.81±14.81
same,α-SMA (Western blot),α-SMA,97.88 ± 15.66
same,Collagen I (Western blot),Collagen I,90.75±19.91
